Assays:
[1] = system: deoxymyoglobin; assay: Myoglobin assay, CO release under 365 nm UV light; conditions: 365 nm lamp; for [MbCO] / Half-life t 1/2 (50% of total CO release) / Released-CO Equivalent: 15 μM complex, pH 7.4; for [MbCO]: 60 μM myoglobin reduced with sodium dithionite; for Half-life t 1/2 (50% of total CO release) / Released-CO Equivalent: 60 μM myoglobin; for Released-CO Percent: percent of the total CO
Experimental: The myoglobin solution, which was prepared in PBS (pH 7.4, 0.1 M), was reduced to deoxymyoglobin using sodium dithionite (100 mM). The solutions of each complex ([…]) in DMSO were incubated with deoxymyoglobin solution ([…]), and the final solution was exposed to 365 nm UV light from a distance of 2 cm. Deoxymyoglobin has a band at 557 nm, while carbonmonoxy-myoglobin has two identical bands at 540 and 577 nm, and the changes at these wavelengths make the process observable and determinable. Thus, the CO-releasing properties of the molecules were calculated using the Lambert–Beer Law.
The commonly used method for determining the CO-releasing of a molecule is UV–visible spectroscopy. There are various ways for releasing CO from a molecule such as substitution, decomposition, and photoactivation. , Manganese carbonyl complexes are known as photoactivatable CO-releasing molecules (photoCORM). A photoCORM must be stable in the dark while it releases CO upon exposure to light of a certain wavelength. […] The basic principle of the myoglobin assay is based on the formation of carbon monoxymyoglobin with the interaction of deoxymyoglobin with CORMs by the spectrophotometric method. […] A 15 μM solution of the complexes was incubated with a 60 μM myoglobin solution reduced with sodium dithionite in a pH 7.4 buffered medium, and the change was followed by the spectroscopic method. The CO-releasing properties of a molecule could be evaluated from two perspectives: the first is how fast the molecule’s release is, and the second is how high the rate of the releasing is.

[2] = molecular target: BSA (Bos taurus, UniProt P02769); assay: BSA binding analysis, UV-vis, Benesi-Hildebrand method; design: species or system bovine; conditions: 15 μM BSA, 0-14 μM complex, PBS pH 7.4, 20 min room temperature, band at 280 nm
Experimental: BSA binding analysis of the molecules was performed with UV–vis spectroscopy, and the records were evaluated using the Benesi-Hildebrand equation. The BSA stock solution was freshly prepared in phosphate-buffered saline (pH 7.4), while the stock solutions of the molecules were prepared in DMSO. A certain BSA solution (15 μM) was incubated with each molecule at different concentrations (0, 2, 4, 6, 8, 10, 12, and 14 μM) for 20 min at room temperature. The absorption spectra of all solutions were recorded between 250 and 350 nm.

[3] = system: CT-DNA; assay: DNA binding analysis, UV-vis, Benesi-Hildebrand method; conditions: 25 μM DNA, 0-35 μM complex, Tris-HCl pH 7.4, 1 h room temperature, absorbance at 260 nm
Experimental: DNA-binding properties of the molecules were analyzed with the Benesi–Hildebrand method with UV–vis spectroscopy. The stock solution of manganese complexes (3 mM) was prepared with DMSO, while a fresh stock solution of DNA from commercial CT-DNA was prepared in Tris-HCl buffer solution (pH = 7.4), and the ratio of A 260/A 280 of the DNA stock was recorded as 1.93. A certain concentration of DNA (25 μM) solution was incubated with different amounts of each complex (0, 5, 10, 15, 20, 25, 30, and 35 μM) for 1 h at room temperature. The absorption spectra of all solutions were recorded using a Shimadzu UV-1800 spectrophotometer between 240 and 500 nm.
In this study, the DNA-binding affinity of the molecules was also confirmed with a UV–vis spectrophotometer. […] While small fluctuations for 300 μM of each complex were recorded upon the addition of DNA solutions with different concentrations (0, 20, 40, 60, 80, 100, 120, and 140 μM) at 388 nm (Figures S6–S10), remarkable changes were detected at 260 nm, which is characteristic of DNA.
Here, A o is the absorbance of DNA in the absence of the manganese complex, A obs is the absorbance of DNA at 260 nm with different amounts of the molecules, [M] is the molar concentration of the molecules, and K b is the binding constant. […] These binding constants are moderately available for DNA-target drug candidates.

BSA, sequence (P02769 25-607): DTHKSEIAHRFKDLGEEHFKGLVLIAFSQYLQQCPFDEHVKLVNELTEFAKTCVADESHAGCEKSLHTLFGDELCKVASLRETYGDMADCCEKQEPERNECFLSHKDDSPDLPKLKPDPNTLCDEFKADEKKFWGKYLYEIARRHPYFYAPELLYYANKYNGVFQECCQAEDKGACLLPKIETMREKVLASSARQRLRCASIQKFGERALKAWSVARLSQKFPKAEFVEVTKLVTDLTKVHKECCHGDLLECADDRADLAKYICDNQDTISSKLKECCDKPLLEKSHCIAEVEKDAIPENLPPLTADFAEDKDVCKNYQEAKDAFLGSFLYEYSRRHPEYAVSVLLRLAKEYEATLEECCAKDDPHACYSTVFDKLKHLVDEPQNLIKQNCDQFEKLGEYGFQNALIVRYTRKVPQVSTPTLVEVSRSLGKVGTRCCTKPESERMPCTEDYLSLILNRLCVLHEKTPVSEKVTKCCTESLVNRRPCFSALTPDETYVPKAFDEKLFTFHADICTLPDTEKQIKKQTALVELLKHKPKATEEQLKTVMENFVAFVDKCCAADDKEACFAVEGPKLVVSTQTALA

Compound	Half-life t 1/2 (50% of total CO release) [1]	BSA binding constant [2]	[MbCO] [1]	Released-CO Equivalent [1]	Released-CO Percent [1]	DNA binding constant K b [3]
C=CCn1c[n+]([Mn-2]2(=[C]=O)(=[C]=O)(=[C]=O)[n+]3ccccc3-c3cccc[n+]32)c2ccccc21.F[P-](F)(F)(F)(F)F [2b, [Mn(CO)3(bpy)(1-allylbenzimidazole)]PF6]	4.85 min	4.3 × 10^4 M^–1	39.51 µM	2.63	88%	2.2 × 10^4 M^–1
[Mn(CO)3(bpy)(1-(3,3-dimethylallyl)benzimidazole)]PF6 [2d]		8.2 × 10^4 M^–1	30.34 µM	2.02	67%	2.4 × 10^4 M^–1
[Mn(CO)3(bpy)(1-isopropylbenzimidazole)]PF6 [2a]	4.02 min	3.6 × 10^4 M^–1	34.64 µM	2.30	77%	3.2 × 10^4 M^–1

Now from value to compound, other results behind:

Half-life t 1/2 (50% of total CO release) [1]	BSA binding constant [2]	Compound	[MbCO] [1]	Released-CO Equivalent [1]	Released-CO Percent [1]	DNA binding constant K b [3]
	4.0 × 10^4 M^–1	[Mn(CO)3(bpy)(1-(2-metallyl)benzimidazole)]PF6 [2c]	39.81 µM	2.65	88%	1.8 × 10^4 M^–1
	3.9 × 10^4 M^–1	[Mn(CO)3(bpy)(1-(2-vinyloxyethyl)benzimidazole)]PF6 [2e]	40.41 µM	2.69	90%	2.7 × 10^4 M^–1

Reference: paper PMC12290954, “Synthesis, Characterization, Computational Evaluation, CO-Releasing Properties, and Molecular Docking Interactions of New [Mn(CO)3(bpy)L]PF6‑Type Molecules” (ACS Omega, 2025)
